Patent US20050154230A1, “Urea derivatives” (Bayer HealthCare AG, priority 2001, published 2005)
Where two headings read alike, the source gives them in different places.

Assays:
human VR1 = biological target: T1, human VR1 (Homo sapiens, UniProt Q8NER1); assay: Capsaicin-induced Ca2+ influx in the human VR1-transfected CHO cell line (Assay 1); assay type: cell-based
T1 construct: expressed in transfected cells
Procedure: [Measurement of Capsaicin-Induced Ca^2+ Influx in the Human VR1-Transfected CHO Cell Line] (Assay 1)
(1) Establishment of the Human VR1-CHOluc9aeq Cell Line
The cloned hVR1 cDNA was constructed with pcDNA3 vector and transfected into a CHOluc9aeq cell line. The cell line contains aequorin and CRE-luciferase reporter genes as read-out signals. The transfectants were cloned by limiting dilution in selection medium (DMEM/F12 medium (Gibco BRL) supplemented with 10% FCS, 1.4 mM Sodium pyruvate, 20 mM HEPES, 0.15% Sodium bicarbonate, 100 U/ml penicillin, 100 μg/ml streptomycin, 2 mM glutamine, non-essential amino acids and 2 mg/ml G418). Ca^2+ influx was examined in the capsaicin-stimulated clones. […] The human VR1-CHOluc9aeq cells were maintained in the selection medium and passaged every 3-4 days at 1-2.5×10^5 cells/flask ([…]).
(2) Measurement of Ca^2+ Influx Using FDSS-3000
Human VR1-CHOluc9aeq cells were suspended in a culture medium which is the same as the selection medium except for G418 and seeded at a density of 1,000 cells per well into 384-well plates (black walled clear-base/Nalge Nunc International). […] After washing twice with assay buffer the cells were incubated with a test compound or vehicle for 20 min at 25° C. […] Integral R was calculated and compared with controls.

[1] = human VR1-CHOluc9aeq cells, 10 nM capsaicin, compound purity about 40 to 90%, read-out: hVR1 class

T1 sequence (Q8NER1 whole entry): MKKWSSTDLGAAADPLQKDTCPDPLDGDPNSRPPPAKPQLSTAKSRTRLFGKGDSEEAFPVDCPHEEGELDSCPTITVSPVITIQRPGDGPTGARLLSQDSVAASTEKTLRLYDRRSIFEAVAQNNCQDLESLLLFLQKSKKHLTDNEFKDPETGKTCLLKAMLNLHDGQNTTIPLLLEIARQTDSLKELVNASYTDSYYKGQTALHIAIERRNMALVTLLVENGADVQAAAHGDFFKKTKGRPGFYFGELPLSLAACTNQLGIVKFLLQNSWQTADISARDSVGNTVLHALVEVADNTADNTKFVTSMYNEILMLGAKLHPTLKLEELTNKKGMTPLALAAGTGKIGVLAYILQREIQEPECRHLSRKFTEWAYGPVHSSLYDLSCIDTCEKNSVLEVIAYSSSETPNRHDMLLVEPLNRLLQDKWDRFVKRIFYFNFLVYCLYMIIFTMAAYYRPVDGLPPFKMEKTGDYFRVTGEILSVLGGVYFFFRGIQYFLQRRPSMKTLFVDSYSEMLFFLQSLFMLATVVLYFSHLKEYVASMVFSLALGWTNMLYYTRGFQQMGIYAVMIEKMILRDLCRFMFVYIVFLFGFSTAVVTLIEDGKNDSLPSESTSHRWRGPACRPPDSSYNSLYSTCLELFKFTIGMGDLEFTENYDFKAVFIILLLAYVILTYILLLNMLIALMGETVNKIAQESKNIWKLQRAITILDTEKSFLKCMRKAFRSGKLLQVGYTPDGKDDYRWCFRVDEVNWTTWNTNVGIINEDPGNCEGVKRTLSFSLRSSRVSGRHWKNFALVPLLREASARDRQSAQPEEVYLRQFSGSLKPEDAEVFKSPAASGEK

Row | IC50 (human VR1; [1]) [nM] | melting point | IC50 (human VR1; human VR1-CHOluc9aeq cells, 10 nM capsaicin, compound purity about 40 to 90%, read-out: Activity grade) [nM] | SMILES | IC50 (human VR1) [nM]
1 | < 100 | 158 to 160 °C | – | COc1ccc(F)cc1-c1cccc(NC(=O)Nc2ccccc2CCO)c1 [Example 235] | –
2 | < 100 | 198 °C | – | O=C(Nc1cccc(-c2ccc(C(F)(F)F)cc2)c1)Nc1ccccc1CCO [Example 222] | –
3 | 100 to 500 | 149 to 150 °C | – | CC(C)c1ccc(NC(=O)Nc2ccccc2CCO)cc1 [Example 101] | –
4 | 500 to 1000 | 174 to 176 °C (dec.) | – | O=C(Nc1ccc(F)cc1F)Nc1ccccc1CCO [Example 145] | –
5 | 100 to 500 | 173 °C | – | O=C(Nc1ccc(Cl)c(C(F)(F)F)c1)Nc1cccc(-c2ccccc2)c1CCO [Example 257] | –
6 | 500 to 1000 | 180 °C | – | COc1cc(CNC(=O)Nc2ccccc2[N+](=O)[O-])ccc1O [Example 58] | –
7 | < 100 | 188 °C | – | O=C(Nc1cccc(-c2cccc([N+](=O)[O-])c2)c1)Nc1ccccc1CCO [Example 234] | –
8 | < 100 | 213 °C | – | Cc1cccc(NC(=O)NCc2ccc(C(F)(F)F)cc2)c1CCO [Example 258] | –
9 | 500 to 1000 | 178 °C | – | Nc1ccc2c(c1)C(NC(=O)Nc1ccc(Cl)c(C(F)(F)F)c1)CCC2 (stereo not drawn) [Example 96] | –
10 | < 100 | 141 to 143 °C | – | COc1ccc(Cl)cc1-c1cccc(NC(=O)Nc2ccccc2CCO)c1 [Example 227] | –
11 | 500 to 1000 | 133 °C | – | COc1cccc(NC(=O)NCc2ccc(O)c(OC)c2)c1 [Example 34] | –
12 | < 100 | 196 °C | – | CCOC(=O)c1ccc(-c2cccc(NC(=O)Nc3ccccc3CCO)c2)cc1 [Example 225] | –
13 | 500 to 1000 | 183 to 184 °C | – | O=C(Nc1ccc2c(c1)OCO2)Nc1ccccc1CCO [Example 220] | –
14 | < 100 | 153 °C | – | O=C(Nc1cccc(-c2ccccc2C(F)(F)F)c1)Nc1ccccc1CCO [Example 241] | –
15 | 500 to 1000 | 243 °C | – | Cc1cc(C)c(NC(=O)Nc2ccccc2CCO)c(C)c1 [Example 115] | –
16 | 500 to 1000 | 178.9 °C | – | O=C(Nc1cccc(-c2cccnc2)c1)Nc1ccccc1CCO [Example 212] | –
17 | – | 188 to 190 °C | < 100 | O=C(Nc1ccc(Cl)c(Cl)c1)Nc1ccccc1CCO [Example 1-2, N-(3,4-dichlorophenyl)-N′-[2-(2-hydroxyethyl)phenyl]urea] | –
18 | 500 to 1000 | 148 to 150 °C | – | Cc1cccc(CNC(=O)Nc2ccccc2CCO)c1 [Example 124] | –
19 | < 100 | 191 °C | – | CSc1ccc(-c2cccc(NC(=O)Nc3ccccc3CCO)c2)cc1 [Example 206] | –
20 | 500 to 1000 | 208 °C | – | COc1cc(CNC(=O)Nc2cc([N+](=O)[O-])ccc2F)ccc1O [Example 65] | –
21 | 500 to 1000 | 188 °C | – | O=C(Nc1ccc(N2CCCCC2)cc1)Nc1ccccc1CCO [Example 168] | –

Row | IC50 (human VR1; [1]) [nM] | melting point | IC50 (human VR1; human VR1-CHOluc9aeq cells, 10 nM capsaicin, compound purity about 40 to 90%, read-out: Activity grade) [nM] | SMILES | IC50 (human VR1) [nM]
22 | – | 201 °C | – | O=C(Nc1ccc(Cl)c(C(F)(F)F)c1)NC1CCCc2ccc(O)cc21 (stereo not drawn) [Example 54] | –
23 | < 100 | 145 to 146 °C | – | O=C(Nc1cccc(Oc2ccccc2)c1)Nc1ccccc1CCO [Example 171] | –
24 | 500 to 1000 | 185 °C | – | O=C(Nc1ccc(F)c([N+](=O)[O-])c1)Nc1ccccc1CCO [Example 111] | –
25 | < 100 | 180 °C | – | O=C(Nc1cccc(-c2ccc(Cl)c(F)c2)c1)Nc1ccccc1CCO [Example 249] | –
26 | 100 to 500 | 170 °C | – | COc1ccc(OC)c(-c2cccc(NC(=O)Nc3ccccc3CCO)c2)c1 [Example 198] | –
27 | < 100 | 166 °C | – | O=C(Nc1cccc(-c2ccc(Cl)cc2Cl)c1)Nc1ccccc1CCO [Example 223] | –
28 | 500 to 1000 | 177.5 °C | – | COc1ccc2c(c1)C(NC(=O)Nc1ccc(F)cc1)CCC2 (stereo not drawn) [Example 53] | –
29 | < 100 | 166 °C | – | COc1ccc(-c2cccc(NC(=O)Nc3ccccc3CCO)c2)cc1 [Example 204] | –
30 | 500 to 1000 | 160 to 162 °C | – | O=C(NCc1cccc(F)c1)Nc1ccccc1CCO [Example 120] | –
31 | 500 to 1000 | 177 °C | – | CC(=O)c1cccc(NC(=O)Nc2ccccc2CCO)c1 [Example 117] | –
32 | < 100 | 126 to 129 °C | – | COc1ccc(Cl)cc1-c1cccc(NC(=O)Nc2ccccc2CCO)c1 [Example 228] | –
33 | 100 to 500 | 180 °C | – | COc1cc(CNC(=O)Nc2ccc(Cl)c([N+](=O)[O-])c2)ccc1O [Example 64] | –
34 | < 100 | 182 to 183 °C | – | O=C(Nc1ccccc1CCO)Nc1cccc2c1Cc1ccccc1-2 [Example 253] | –
35 | < 100 | 164 to 168 °C (dec.) | – | Cc1ccc(Oc2ccc(NC(=O)Nc3ccccc3CCO)cc2)cc1 [Example 176] | –
36 | 100 to 500 | 214 to 216 °C | – | O=C(Nc1cc(Cl)cc(Cl)c1)Nc1ccccc1CCO [Example 109] | –
37 | < 100 | 205 °C | – | CC(=O)c1ccc(-c2cccc(NC(=O)Nc3ccccc3CCO)c2)cc1 [Example 224] | –
38 | < 100 | 224 to 226 °C | – | CCn1c2ccccc2c2cc(NC(=O)Nc3ccccc3CCO)ccc21 [Example 172] | –
39 | 500 to 1000 | 190 to 191 °C | – | O=C(Nc1ccccc1CCO)Nc1ccccc1Oc1ccccc1 [Example 160] | –
40 | < 100 | 178 °C | – | Cc1ccc(-c2cccc(NC(=O)Nc3ccccc3CCO)c2)cc1 [Example 200] | –
41 | 500 to 1000 | 176 °C | – | CC(NC(=O)Nc1ccccc1CCO)c1cccc2ccccc12 (stereo not drawn) [Example 155] | –
42 | 500 to 1000 | 144 °C | – | COc1cc(CNC(=O)Nc2ccccc2OC)ccc1O [Example 57] | –

Row | IC50 (human VR1; [1]) [nM] | melting point | IC50 (human VR1; human VR1-CHOluc9aeq cells, 10 nM capsaicin, compound purity about 40 to 90%, read-out: Activity grade) [nM] | SMILES | IC50 (human VR1) [nM]
43 | < 100 | 113 °C | – | O=C(Nc1cccc(-c2cccc3ccccc23)c1)Nc1ccccc1CCO [Example 214] | –
44 | 500 to 1000 | 180 to 182 °C | – | O=C(Nc1ccccc1CCO)Nc1ccccc1C(F)(F)F [Example 152] | –
45 | 500 to 1000 | 180 to 181 °C | – | COc1cccc(OC)c1-c1cccc(NC(=O)Nc2ccccc2CCO)c1 [Example 231] | –
46 | 500 to 1000 | 154 °C | – | COc1ccccc1NC(=O)Nc1ccccc1CCO [Example 134] | –
47 | 100 to 500 | 191 to 193 °C | – | O=C(Nc1cccc(-c2ccccc2Cl)c1)Nc1ccc(Cl)cc1CCO [Example 245] | –
48 | 500 to 1000 | 204 °C | – | Cc1ccc2ccccc2c1NC(=O)Nc1ccccc1CCO [Example 164] | –
49 | 500 to 1000 | 208 °C | – | O=C(Nc1ccc(Br)cc1)Nc1ccccc1CCO [Example 114] | –
50 | 500 to 1000 | 183 °C | – | O=C(Nc1cc([N+](=O)[O-])ccc1F)Nc1ccccc1CCO [Example 112] | –
51 | < 100 | 175 °C | – | O=C(Nc1cccc(-c2cccc(Cl)c2)c1)Nc1ccccc1CCO [Example 195] | –
52 | 500 to 1000 | 181 °C | – | Cc1ccc(NC(=O)Nc2ccccc2CCO)c(C)c1 [Example 133] | –
53 | 500 to 1000 | 186 to 188 °C | – | Cc1ccccc1CNC(=O)Nc1ccccc1CCO [Example 123] | –
54 | < 100 | 176 °C | – | O=C(Nc1cccc(-c2ccc(F)c(Cl)c2)c1)Nc1ccccc1CCO [Example 215] | –
55 | < 100 | 210 °C | – | COc1cc(CNC(=O)Nc2ccc(Cl)cc2)ccc1O [Example 83] | –
56 | 500 to 1000 | 162 to 164 °C | – | O=C(Nc1ccccc1CCO)Nc1ccccc1Cc1ccccc1 [Example 157] | –
57 | < 100 | 194 °C | – | Cc1ccc(-c2cccc(NC(=O)Nc3ccccc3CCO)c2)cc1Cl [Example 248] | –
58 | 500 to 1000 | 212 °C | – | O=C(Nc1ccccc1CCO)Nc1cccc2ccc(O)cc12 [Example 166] | –
59 | 500 to 1000 | 183 to 185 °C | – | O=C(NCc1ccccc1Cl)Nc1ccccc1CCO [Example 126] | –
60 | 100 to 500 | 81 to 83 °C | – | COc1cc(-c2cccc(NC(=O)Nc3ccccc3CCO)c2)cc(OC)c1OC [Example 237] | –
61 | 500 to 1000 | 186 °C | – | Cc1cccc(NC(=O)Nc2ccccc2CCO)c1 [Example 129] | –
62 | < 100 | 180 °C | – | O=C(Nc1cccc(-c2ccc(Cl)c(Cl)c2)c1)Nc1ccccc1CCO [Example 216] | –

Row | SMILES | IC50 (human VR1; [1]) [nM] | melting point | IC50 (human VR1; human VR1-CHOluc9aeq cells, 10 nM capsaicin, compound purity about 40 to 90%, read-out: Activity grade) [nM] | IC50 (human VR1) [nM]
63 | N#Cc1ccc(NC(=O)Nc2ccccc2CCO)cc1C(F)(F)F [Example 186] | – | 171 °C | – | < 100
64 | COc1cc(CNC(=O)Nc2ccc(F)c([N+](=O)[O-])c2)ccc1O [Example 66] | – | 184 °C | – | 100 to 500
65 | COc1cc(CNC(=O)Nc2cccc(C)c2)ccc1O [Example 82] | – | 181 °C | – | 100 to 500
